Reference: article PMC7108740, “Exploring the molecular structures that confer ligand selectivity for galanin type II and III receptors” (PLoS ONE, 2020)

Assays:
[1] = molecular target: T1, GALR3 single mutant C^272L (Homo sapiens, UniProt O60755, C272L); experiment: SRE-luc luciferase assay, GALR3 C272L; assay type: cell-based; conditions: GALR3 C^272L; SRE-luc in HEK293 Gqi cells, ligand 6 h; mean ± S.E.; SEM
T1 construct: expressed in transfected cells; host or cells: HEK293 cells stably expressing Gqi
T1 sequence (O60755 whole entry C272L): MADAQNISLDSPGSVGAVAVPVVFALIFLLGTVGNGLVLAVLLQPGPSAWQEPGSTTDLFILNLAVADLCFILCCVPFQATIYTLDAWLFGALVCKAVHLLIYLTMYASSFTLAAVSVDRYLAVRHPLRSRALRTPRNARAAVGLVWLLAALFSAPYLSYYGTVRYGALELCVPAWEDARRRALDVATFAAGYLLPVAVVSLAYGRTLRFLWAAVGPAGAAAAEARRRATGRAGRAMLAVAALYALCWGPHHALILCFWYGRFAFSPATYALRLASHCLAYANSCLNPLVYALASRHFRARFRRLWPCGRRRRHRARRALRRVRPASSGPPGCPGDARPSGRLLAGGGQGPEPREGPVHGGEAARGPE
Description: For domain swapping between GALR2 and GALR3, individual cDNA fragments of interest were amplified by polymerase chain reaction (PCR) with Pfu polymerase (ELPIS Biotech, Daejeon, Korea) and two specific primers, one corresponding to the 5' or 3' end of the GALR2 or GALR3 cDNA and the other to the region of overlap between the two receptors. The two resulting fragments, one from GALR2 and the other from GALR3, were subjected to a second round of PCR to generate the chimeric cDNAs. To construct single, double-, triple-, pentuple-, hextuple-, and septuple-mutant receptors, amino acids of GALR3 were substituted for the amino acids at the corresponding positions in GALR2 using PCR-based site-directed mutagenesis. All of the chimeric constructs were cloned into the pcDNA3 expression vector at HindⅢ and XbaⅠ sites. The DNA sequences of the chimeras were verified by automatic sequencing. […] The luciferase activity in 50 μl cell extract was determined using a luciferase assay system according to the standard protocol for the Synergy 2 Multi-Mode Microplate Reader (BioTek, Winooski, VT, USA). […] The concentrations of agonists that induced half-maximal stimulation (EC50) were calculated using the GraphPad PRISM5 software (GraphPad software, Inc., San Diego, CA). […]

GALR3 septuple = molecular target: T2, GALR3 septuple (Homo sapiens, UniProt O60755, A190V/A191F/C272L/G192S/L100F/Y103F/Y107H); experiment: cAMP assay (inhibition of forskolin-induced cAMP), GALR3 septuple mutant; assay type: cell-based; conditions: Glosensor-22F cAMP HEK293 cells, agonist 10 min then forskolin 10 μM, mean ± SE, SEM
T2 construct: expressed in transfected cells; host or cells: HEK293 cells stably expressing pGlosensor-22F cAMP plasmid
T2 sequence (O60755 1-368 L100F/Y103F/Y107H/A190V/A191F/G192S/C272L): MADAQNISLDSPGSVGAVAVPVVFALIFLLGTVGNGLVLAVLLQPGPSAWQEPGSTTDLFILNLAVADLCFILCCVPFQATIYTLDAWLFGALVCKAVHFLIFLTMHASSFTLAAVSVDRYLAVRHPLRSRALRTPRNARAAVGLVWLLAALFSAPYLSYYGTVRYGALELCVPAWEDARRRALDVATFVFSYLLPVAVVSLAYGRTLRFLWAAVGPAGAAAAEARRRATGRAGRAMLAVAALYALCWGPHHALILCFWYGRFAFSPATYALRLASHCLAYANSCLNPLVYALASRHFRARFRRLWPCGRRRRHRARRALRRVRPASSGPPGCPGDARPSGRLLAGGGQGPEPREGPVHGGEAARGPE
Protocol: SPX-induced or Qu-SPX-induced cyclic adenosine monophosphate (cAMP) mobilization was measured in HEK293 cells stably expressing the pGlosensor^TM-22F cAMP plasmid (Promega Corp., Madison, WI, USA). The Glosensor-22F cAMP HEK293 cells were seeded on 96-well plates at a density of 2.0 × 10^4 cells/well 24 h before transfection. A mixture including 100 ng expression plasmid and lipofectamine 2000 reagent in diluted Opti-MEM (Gibco) was incubated at room temperature for 20 min. The mixtures were added into each well according to the manufacturer's instructions (Invitrogen, CA, USA). After 48 h, Glosensor cAMP substrates were added to the transfected cells in CO2-independent media. After 2 h, the cells were incubated with a range of agonist concentrations or vehicle for 10 min and then exposed to foskolin (10 μM). Luminescence was measured for up to 30 min using a Microplate Reader (BioTek, Winooski, VT, USA).
Data analysis was performed by non-linear regression with a sigmoidal dose-response curve. The concentrations of agonists that induced half-maximal stimulation (EC50) were calculated using the GraphPad PRISM5 software (GraphPad software, Inc., San Diego, CA). All data are presented as the mean ± standard error (SE) of at least three independent experiments. […]

- EC50 [1]: 28.8 ± 6.96 nM
- EC50 (GALR3 septuple): 77.6 ± 38.7 nM
Structure (SMILES): CSCC[C@H](NC(=O)[C@H](C)NC(=O)[C@H](CCC(N)=O)NC(=O)[C@@H]1CCCN1C(=O)[C@@H](NC(=O)[C@H](Cc1c[nH]c2ccccc12)NC(=O)[C@@H](N)CC(N)=O)[C@@H](C)O)C(=O)N[C@@H](CC(C)C)C(=O)N[C@@H](Cc1ccc(O)cc1)C(=O)N[C@@H](CC(C)C)C(=O)N[C@@H](CCCCN)C(=O)NCC(=O)N[C@@H](C)C(=O)N[C@@H](CCC(N)=O)C(N)=O [SPX, reference compound]
